Laboratory results from patent publication US10266526B2, “Substituted 1,2,3-triazoles as SMYD inhibitors for treating cancer” (EPIZYME, INC., priority 2014, dated 2019).

The compounds below were run against SMYD3 (Homo sapiens (Human), UniProt Q9H7B4) (assay: SMYD3 biochemical assay (SMYD3 enzyme assay on MEKK2 protein substrate, 3H-SAM scintillation proximity assay)). Details: Table 1A; average of n = 1 to n = 50; read-out: SMYD3 Biochem IC50.
Procedure, shortened: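 Detection used scintillation proximity beads to capture ³H-methylated GST-MEKK2 after quench with 100 uM final cold SAM. The reaction was started by SAM/MEKK2 addition after a 30 min RT compound–enzyme preincubation. Enzyme was tag-free full-length human SMYD3 from E. coli, in buffer of 25 mM Tris-Cl pH 8.0, 1 mM TCEP, 0.005% BSG, 0.005% Tween 20.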

Sequence of SMYD3 (Q9H7B4 whole entry): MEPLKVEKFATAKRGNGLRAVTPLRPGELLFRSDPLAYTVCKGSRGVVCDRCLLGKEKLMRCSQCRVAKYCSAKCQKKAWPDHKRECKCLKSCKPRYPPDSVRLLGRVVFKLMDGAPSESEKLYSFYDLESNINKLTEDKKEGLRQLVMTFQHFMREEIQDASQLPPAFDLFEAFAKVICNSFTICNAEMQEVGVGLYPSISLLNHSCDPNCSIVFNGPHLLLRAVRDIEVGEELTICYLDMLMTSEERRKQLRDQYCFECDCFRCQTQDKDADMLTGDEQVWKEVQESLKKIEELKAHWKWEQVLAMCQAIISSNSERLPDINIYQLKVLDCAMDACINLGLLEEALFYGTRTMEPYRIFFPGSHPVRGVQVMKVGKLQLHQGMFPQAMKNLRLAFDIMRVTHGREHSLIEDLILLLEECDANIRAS

Question: `NCCC(=O)N[C@H]1CC[C@H](NC(=O)c2nnc[nH]2)CC1` [compound 525, N-((1r,4r)-4-(3-aminopropanamido)cyclohexyl)-4H-1,2,4-triazole-3-carboxamide] was tested. Which IC50 did it give?
Answer: Its IC50 is greater than 50 µM.

Question: For `NCCC(=O)N[C@H]1CC[C@H](NC(=O)c2c[nH]cn2)CC1` [compound 537, N-((1r,4r)-4-(3-aminopropanamido)cyclohexyl)-1H-imidazole-4-carboxamide], which IC50 is on record?
Answer: Its IC50 is greater than 50 µM.

Question: `C[C@H]1C[C@@H](NC(=O)c2ccccc2)CCN1C(=O)C1CCC(N)CC1` (mixture of isomers) [compound 567, (±)-cis-N-(1-(4-aminocyclohexane-1-carbonyl)-2-methylpiperidin-4-yl)benzamide] was tested. Which IC50 did it give?
Answer: Its IC50 is greater than 10 µM.

Question: With `C[C@@H]1C[C@H](NC(=O)c2ccccc2)CCN1S(=O)(=O)CCCN` (stereo in doubt) [compound 564, (±)-cis-N-(1-((3-aminopropyl)sulfonyl)-2-methylpiperidin-4-yl)benzamide] as the compound, how does the IC50 read?
Answer: The IC50 was greater than 10 µM.

Question: For `CC(NC(=O)c1cn(CC(N)=O)nn1)C1CCN(C(=O)[C@H](C)N)CC1` (stereo partly drawn) [compound 534, N-(1-(1-(L-alanyl)piperidin-4-yl)ethyl)-1-(2-amino-2-oxoethyl)-1H-1,2,3-triazole-4-carboxamide], which IC50 is on record?
Answer: The IC50 was greater than 50 µM.

Same assay, conditions: read-out: SMYD3 Biochem IC50

Question: With `N[C@H]1CC[C@H](NC(=O)Cc2c[nH]c3cccnc23)CC1` [compound 408, N-((1r,4r)-4-aminocyclohexyl)-2-(1H-pyrrolo[3,2-b]pyridin-3-yl)acetamide] as the compound, how does the IC50 read?
Answer: The IC50 was greater than 100 µM.

Question: With `COc1cc(C(=O)NC(C)C2CCN(C(=O)[C@H](C)N)CC2)c2ccccc2n1` (stereo partly drawn) [compound 221, N-(1-(1-(L-alanyl)piperidin-4-yl)ethyl)-2-methoxyquinoline-4-carboxamide] as the compound, how does the IC50 read?
Answer: Its IC50 is greater than 100 µM.

Question: How did the IC50 turn out when `Nc1ccc(C(=O)N[C@H]2CC[C@H](N)CC2)nc1` [compound 438, 5-amino-N-((1r,4r)-4-aminocyclohexyl)picolinamide] was run?
Answer: Its IC50 is greater than 100 µM.

Question: For `NC1CCC(NC(=O)c2cccc3c2NC(=O)C3)CC1` (stereo not drawn) [compound 506, N-(4-aminocyclohexyl)-2-oxoindoline-7-carboxamide], which IC50 is on record?
Answer: Its IC50 is 42.3 µM.

Question: With `NCCC(=O)N[C@H]1CC[C@H](NC(=O)c2cncs2)CC1` [compound 442, N-((1r,4r)-4-(3-aminopropanamido)cyclohexyl)thiazole-5-carboxamide] as the compound, how does the IC50 read?
Answer: The IC50 was greater than 100 µM.

Question: Which IC50 does the source give for `N[C@H]1CC[C@H](NC(=O)c2ccc3[nH]ccc3c2)CC1` [compound 192, N-((1r,4r)-4-aminocyclohexyl)-1H-indole-5-carboxamide] here?
Answer: Its IC50 is greater than 100 µM.

Question: `NCCC(=O)N[C@H]1CC[C@H](NC(=O)c2n[nH]c3ccccc23)CC1` [compound 425, N-((1r,4r)-4-(3-aminopropanamido)cyclohexyl)-1H-indazole-3-carboxamide] was tested. Which IC50 did it give?
Answer: Its IC50 is 37.5 µM.

Question: Which IC50 does the source give for `NCCC(=O)N[C@H]1CC[C@H](NC(=O)c2ncccc2O)CC1` [compound 512, N-((1r,4r)-4-(3-aminopropanamido)cyclohexyl)-3-hydroxypicolinamide] here?
Answer: The IC50 was greater than 50 µM.

Question: `CC(NC(=O)c1ccc2cc[nH]c2c1)C1CCN(C(=O)[C@H](C)N)CC1` (stereo partly drawn) [compound 368, N-(1-(1-(L-alanyl)piperidin-4-yl)ethyl)-1H-indole-6-carboxamide] was tested. Which IC50 did it give?
Answer: Its IC50 is 12.3 µM.

Question: `N[C@H]1CC[C@H](NC(=O)c2noc(C3CC3)n2)CC1` [compound 484, N-((1r,4r)-4-aminocyclohexyl)-5-cyclopropyl-1,2,4-oxadiazole-3-carboxamide] was tested. Which IC50 did it give?
Answer: Its IC50 is 85.7 µM.

Question: For `NCCC(=O)NC1CCC(NC(=O)c2ncc[nH]2)CC1` (stereo not drawn) [compound 518, N-(4-(3-aminopropanamido)cyclohexyl)-1H-imidazole-2-carboxamide], which IC50 is on record?
Answer: The IC50 was greater than 50 µM.

Question: For `N[C@H]1CC[C@H](NC(=O)c2cccc3[nH]ccc23)CC1` [compound 291, N-((1r,4r)-4-aminocyclohexyl)-1H-indole-4-carboxamide], which IC50 is on record?
Answer: The IC50 was greater than 100 µM.

Question: Which IC50 does the source give for `NCCC(=O)N[C@H]1CC[C@H](NC(=O)Cc2ccc3c(c2)CC(=O)N3)CC1` [compound 465, 3-amino-N-((1r,4r)-4-(2-(2-oxoindolin-5-yl)acetamido)cyclohexyl)propanamide] here?
Answer: Its IC50 is 38.8 µM.

Question: For `CC1Oc2ccc(C(=O)N[C@H]3CC[C@H](NC(=O)CCN)CC3)cc2NC1=O` (stereo partly drawn) [compound 451, N-((1r,4r)-4-(3-aminopropanamido)cyclohexyl)-2-methyl-3-oxo-3,4-dihydro-2H-benzo[b][1,4]oxazine-6-carboxamide], which IC50 is on record?
Answer: Its IC50 is 9.9 µM.

Question: How did the IC50 turn out when `N[C@H]1CC[C@H](NC(=O)Cn2ccnc2)CC1` [compound 426, N-((1r,4r)-4-aminocyclohexyl)-2-(1H-imidazol-1-yl)acetamide] was run?
Answer: Its IC50 is greater than 100 µM.

Question: Which IC50 does the source give for `NCCC(=O)N[C@H]1CC[C@H](NC(=O)Cc2ccc(F)cc2)CC1` [compound 207, 3-amino-N-((1r,4r)-4-(2-(4-fluorophenyl)acetamido)cyclohexyl)propanamide] here?
Answer: Its IC50 is greater than 100 µM.

Question: Which IC50 does the source give for `COc1cccc(C(=O)NC(C)C2CCN(C(=O)[C@H](C)N)CC2)n1` (stereo partly drawn) [compound 301, N-(1-(1-(L-alanyl)piperidin-4-yl)ethyl)-6-methoxypicolinamide] here?
Answer: Its IC50 is greater than 100 µM.

Question: How did the IC50 turn out when `Cc1ncc(C(=O)N[C@H]2CC[C@H](NC(=O)CCN)CC2)cn1` [compound 184, N-((1r,4r)-4-(3-aminopropanamido)cyclohexyl)-2-methylpyrimidine-5-carboxamide] was run?
Answer: The IC50 was 35.8 µM.

Question: For `N[C@H]1CC[C@H](NC(=O)c2cn3ccsc3n2)CC1` [compound 318, N-((1r,4r)-4-aminocyclohexyl)imidazo[2,1-b]thiazole-6-carboxamide], which IC50 is on record?
Answer: Its IC50 is greater than 100 µM.

Question: `COc1cccc(C(=O)N[C@H]2CC[C@H](N)CC2)n1` [compound 354, N-((1r,4r)-4-aminocyclohexyl)-6-methoxypicolinamide] was tested. Which IC50 did it give?
Answer: Its IC50 is greater than 100 µM.

Question: `CC(NC(=O)c1cnccn1)C1CCN(C(=O)[C@H](C)N)CC1` (stereo partly drawn) [compound 205, N-(1-(1-(L-alanyl)piperidin-4-yl)ethyl)pyrazine-2-carboxamide] was tested. Which IC50 did it give?
Answer: Its IC50 is greater than 100 µM.

Question: `CC(NC(=O)c1ccc(N)cn1)C1CCN(C(=O)[C@H](C)N)CC1` (stereo partly drawn) [compound 357, N-(1-(1-(L-alanyl)piperidin-4-yl)ethyl)-5-aminopicolinamide] was tested. Which IC50 did it give?
Answer: Its IC50 is greater than 100 µM.

Question: How did the IC50 turn out when `NCCC(=O)N[C@H]1CC[C@H](NC(=O)c2ccc3nonc3c2)CC1` [compound 332, N-((1r,4r)-4-(3-aminopropanamido)cyclohexyl)benzo[c][1,2,5]oxadiazole-5-carboxamide] was run?
Answer: Its IC50 is greater than 100 µM.

Question: With `NCCC(=O)N[C@H]1CC[C@H](NC(=O)c2cc(O)nc3ccccc23)CC1` [compound 200, N-((1r,4r)-4-(3-aminopropanamido)cyclohexyl)-2-hydroxyquinoline-4-carboxamide] as the compound, how does the IC50 read?
Answer: Its IC50 is 23.3 µM.

Question: Which IC50 does the source give for `N[C@H]1CC[C@H](NC(=O)c2nccc3ccccc23)CC1` [compound 197, N-((1r,4r)-4-aminocyclohexyl)isoquinoline-1-carboxamide] here?
Answer: The IC50 was greater than 100 µM.

Question: With `CC(NC(=O)c1ccc(S(N)(=O)=O)cc1)C1CCN(C(=O)[C@H](C)N)CC1` (stereo partly drawn) [compound 323, N-(1-(1-(L-alanyl)piperidin-4-yl)ethyl)-4-sulfamoylbenzamide] as the compound, how does the IC50 read?
Answer: Its IC50 is greater than 100 µM.

Question: Which IC50 does the source give for `N[C@H]1CC[C@H](NC(=O)c2c[nH]c3ccccc23)CC1` [compound 360, N-((1r,4r)-4-aminocyclohexyl)-1H-indole-3-carboxamide] here?
Answer: Its IC50 is greater than 100 µM.

Question: Which IC50 does the source give for `Cc1cc2cc(C(=O)N[C@H]3CC[C@H](NC(=O)CCN)CC3)ccc2[nH]1` [compound 519, N-((1r,4r)-4-(3-aminopropanamido)cyclohexyl)-2-methyl-1H-indole-5-carboxamide] here?
Answer: The IC50 was greater than 50 µM.

Same assay, conditions: read-out: SMYD3 Biochem IC50 (μM)*

Question: `CC(NC(=O)c1cncc(F)c1)C1CCN(C(=O)[C@H](C)N)CC1` (stereo partly drawn) [compound 157, N-(1-(1-(L-alanyl)piperidin-4-yl)ethyl)-5-fluoronicotinamide] was tested. Which IC50 did it give?
Answer: The IC50 was greater than 100 µM.

Question: How did the IC50 turn out when `N[C@H]1CC[C@H](NC(=O)c2ccc3ccc(O)nc3c2)CC1` [compound 119, N-((1r,4r)-4-aminocyclohexyl)-2-hydroxyquinoline-7-carboxamide] was run?
Answer: Its IC50 is 116 µM.

Question: For `N[C@H]1CC[C@H](NC(=O)c2ccc3c(c2)CCC(=O)N3)CC1` [compound 74, N-((1r,4r)-4-aminocyclohexyl)-2-oxo-1,2,3,4-tetrahydroquinoline-6-carboxamide], which IC50 is on record?
Answer: Its IC50 is 65.8 µM.

Question: With `N[C@H]1CC[C@H](NC(=O)c2ccc3cnccc3c2)CC1` [compound 166, N-((1r,4r)-4-aminocyclohexyl)isoquinoline-6-carboxamide] as the compound, how does the IC50 read?
Answer: Its IC50 is 20.7 µM.

Question: `CC(NC(=O)c1ccc2c(c1)CC(=O)N2)C1CCN(C(=O)[C@@H](C)N)CC1` (stereo partly drawn) [compound 87, N-(1-(1-(D-alanyl)piperidin-4-yl)ethyl)-2-oxoindoline-5-carboxamide] was tested. Which IC50 did it give?
Answer: Its IC50 is 9.37 µM.

Question: How did the IC50 turn out when `CC(=O)Nc1ccc(S(=O)(=O)N2CCC(NC(=O)c3cn(C4CC4)nn3)CC2)cc1` [compound 10, N-(1-((4-acetamidophenyl)sulfonyl)piperidin-4-yl)-1-cyclopropyl-1H-1,2,3-triazole-4-carboxamide] was run?
Answer: Its IC50 is 17 µM.

Question: With `CC(NC(=O)c1ccc2cc(N)ccc2c1)C1CCN(C(=O)[C@H](C)N)CC1` (stereo partly drawn) [compound 97, N-(1-(1-(L-alanyl)piperidin-4-yl)ethyl)-6-amino-2-naphthamide] as the compound, how does the IC50 read?
Answer: Its IC50 is 146 µM.

Question: `C[C@H](N)C(=O)N1CCC(O)(CNC(=O)c2ccc3c(c2)CC(=O)N3)CC1` [compound 112, N-((1-(L-alanyl)-4-hydroxypiperidin-4-yl)methyl)-2-oxoindoline-5-carboxamide] was tested. Which IC50 did it give?
Answer: Its IC50 is 3.04 µM.

Question: For `CS(=O)(=O)c1cccc(C(=O)N[C@H]2CC[C@H](NC(=O)CCN)CC2)c1` [compound 150, N-((1r,4r)-4-(3-aminopropanamido)cyclohexyl)-3-(methylsulfonyl)benzamide], which IC50 is on record?
Answer: Its IC50 is greater than 100 µM.

Question: `CCc1ncc(C(=O)Nc2ccc(CN)cc2)s1` [compound 61, N-(4-(aminomethyl)phenyl)-2-ethylthiazole-5-carboxamide] was tested. Which IC50 did it give?
Answer: Its IC50 is 114 µM.

Question: How did the IC50 turn out when `N[C@H]1CC[C@H](NC(=O)c2ccc3c(c2)CC(=O)N3)CC1` [compound 42, N-((1r,4r)-4-aminocyclohexyl)-2-oxoindoline-5-carboxamide] was run?
Answer: Its IC50 is 3.31 µM.

Question: For `CCc1cccc(C(=O)N[C@H]2CC[C@H](N)CC2)c1` [compound 21, N-((1r,4r)-4-aminocyclohexyl)-3-ethylbenzamide], which IC50 is on record?
Answer: The IC50 was 57.5 µM.
